Assay results: US11654102B2, “Cosmetic composition comprising vetiver root extract” (GIVAUDAN SA, priority 2018, dated 2023)

Assay: Solubility of zizanoic acid in water
Type: physicochemical
Conditions: in presence of the other substances present in the extract

solubility of zizanoic acid in water: improved
Structure (SMILES): C=C1[C@H]2CC[C@H](C(=O)O)[C@@]23CC[C@H](C3)C1(C)C [zizanoic acid]
